Measurements taken from EPA's ToxRefDB 2.

Experiments:
[1] = system: rat; details: Subchronic oral toxicity in rodents, wistar, Feed, dose end: 90 day, group: systemic
[2] = system: rat; details: Subchronic oral toxicity in rodents, fischer, Feed, dose end: 13 week, group: systemic
[3] = system: rat; details: Multigenerational reproductive toxicity study, sprague dawley, Oral, Feed, dose end: 2 generation
[4] = system: rat; details: Combined chronic toxicity/carcinogenicity, fischer, Oral, Feed, dose end: 24 month, group: systemic
[5] = system: mouse; details: Sub-acute repeat dose toxicity, cd1, Oral, Feed, dose end: 4 week, group: systemic
[6] = system: mouse; details: Carcinogenicity; cd1; Oral; Feed; dose end: 18 month; group: systemic; systemic / pathology gross / kidney / reduced size + systemic / pathology microscopic / kidney / inflammation + systemic / pathology …
[7] = system: rat; details: Multigenerational reproductive toxicity study, sprague dawley, Oral, Feed, dose end: 2 generation; remark: listed apart in the source
[8] = systemic / pathology microscopic / kidney / inflammation + systemic / in life observation / mortality / mortality + systemic / pathology …
[9] = group: offspring, developmental / offspring survival late / viability index / viability index
[10] = group: offspring, developmental / offspring survival late / viability index / viability index + systemic / in life observation / body weight / offspring (pup…
[11] = group: parental, systemic / organ weight / kidney / relative to body weight
[12] = group: parental, systemic / organ weight / kidney / relative to body weight + systemic / organ weight / kidney / absolute + systemic / pathology gross / …
[13] = systemic / in life observation / clinical signs / perineal soiling + systemic / organ weight / adrenal gland / relative to body weight + …
[14] = systemic / pathology microscopic / kidney / degeneration
[15] = systemic / pathology microscopic / kidney / degeneration + systemic / in life observation / body weight / body weight gain + systemic / in …
[16] = group: parental, systemic / organ weight / kidney / absolute + systemic / organ weight / kidney / relative to body weight
[17] = group: reproductive, reproductive / offspring survival early / dead fetuses / dead fetuses + reproductive / offspring survival early / litter size / litter size

**Q.** For `Nc1c(Cl)c(F)nc(OCC(=O)O)c1Cl` [Fluroxypyr], which LEL [1, 8] is on record?
**A.** 750 mg/kg/day

**Q.** What about the LOAEL [1, 8] of the same compound?
**A.** 750 mg/kg/day

**Q.** And the NEL ([1]; systemic / urinalysis / ph / ph + systemic / clinical chemistry / alanine aminotransferase (alt/sgpt) / alanine aminotransferase (alt/sgpt…)?
**A.** 80 mg/kg/day

**Q.** What about the LEL ([2]; systemic / hematology / hemoglobin (hgb) / hemoglobin (hgb) + systemic / urinalysis / specific gravity/osmolality / specific gravity/…) of the same compound?
**A.** 700 mg/kg/day

**Q.** And the NEL ([2]; systemic / in life observation / body weight / body weight gain + systemic / organ weight / testes / absolute + systemic / hematology / …)?
**A.** 320 mg/kg/day

**Q.** What about the NOAEL ([2]; systemic / organ weight / brain / absolute + systemic / hematology / erythrocyte (rbc) count differential / erythrocyte (rbc) + systemic / …) of the same compound?
**A.** 700 mg/kg/day

**Q.** What about the LOAEL ([2]; systemic / organ weight / brain / absolute + systemic / in life observation / body weight / body weight gain + systemic / organ weight / …) of the same compound?
**A.** 1000 mg/kg/day

**Q.** What about the LEL [3, 9] of the same compound?
**A.** 500 mg/kg/day

**Q.** What about the LOAEL [3, 9] of the same compound?
**A.** 500 mg/kg/day

**Q.** What about the NEL [3, 10] of the same compound?
**A.** 100 mg/kg/day

**Q.** And the NOAEL [3, 10]?
**A.** 100 mg/kg/day

**Q.** And the LEL [3, 11]?
**A.** 100 mg/kg/day

**Q.** And the NEL [3, 11]?
**A.** < 100 mg/kg/day

**Q.** What about the LOAEL [3, 12] of the same compound?
**A.** 500 mg/kg/day

**Q.** What about the NOAEL [3, 12] of the same compound?
**A.** 100 mg/kg/day

**Q.** What about the LEL [4, 13] of the same compound?
**A.** 100 mg/kg/day

**Q.** And the NEL [4, 13]?
**A.** < 100 mg/kg/day

**Q.** And the NOAEL [4, 13]?
**A.** 100 mg/kg/day

**Q.** What about the LOAEL ([4]; systemic / organ weight / kidney / relative to body weight + systemic / pathology microscopic / kidney / nephropathy + systemic / organ …) of the same compound?
**A.** 500 mg/kg/day

**Q.** And the LEL [5, 14]?
**A.** 132 mg/kg/day

**Q.** What about the LOAEL [5, 14] of the same compound?
**A.** 132 mg/kg/day

**Q.** And the NEL [5, 15]?
**A.** 14 mg/kg/day

**Q.** And the NOAEL [5, 15]?
**A.** 14 mg/kg/day

**Q.** And the LEL [6]?
**A.** 1000 mg/kg/day

**Q.** What about the LOAEL [6] of the same compound?
**A.** 1000 mg/kg/day

**Q.** What about the NEL [6] of the same compound?
**A.** 300 mg/kg/day

**Q.** What about the NOAEL [6] of the same compound?
**A.** 300 mg/kg/day

**Q.** What about the LEL ([7]; group: offspring, developmental / developmental malformation / general / runts) of the same compound?
**A.** 500 mg/kg/day

**Q.** And the NEL ([7]; group: offspring, developmental / developmental malformation / general / runts + developmental / developmental malformation / eye / anophthalmia + …)?
**A.** 100 mg/kg/day

**Q.** And the NOAEL ([7]; group: offspring, developmental / developmental malformation / general / runts + systemic / in life observation / body weight / offspring (pup) weight gain + …)?
**A.** 500 mg/kg/day

**Q.** What about the LOAEL ([7]; group: offspring, systemic / in life observation / body weight / offspring (pup) weight gain + systemic / in life observation / body weight / offspring (pup) …) of the same compound?
**A.** 750 mg/kg/day

**Q.** And the NOAEL ([7]; group: parental, systemic / organ weight / kidney / absolute + systemic / in life observation / body weight / body weight + systemic / in life observation / …)?
**A.** 100 mg/kg/day

**Q.** And the LEL [7, 16]?
**A.** 100 mg/kg/day

**Q.** What about the NEL [7, 16] of the same compound?
**A.** < 100 mg/kg/day

**Q.** What about the LOAEL ([7]; group: parental, systemic / organ weight / kidney / absolute + systemic / organ weight / kidney / relative to body weight + systemic / pathology microscopic…) of the same compound?
**A.** 500 mg/kg/day

**Q.** And the LEL [7, 17]?
**A.** 750 mg/kg/day

**Q.** And the LOAEL [7, 17]?
**A.** 750 mg/kg/day

**Q.** What about the NEL [7, 17] of the same compound?
**A.** 500 mg/kg/day

**Q.** And the NOAEL [7, 17]?
**A.** 500 mg/kg/day
